1 compound from publication PMC10611578, “Aβ1-6A2V(D) peptide, effective on Aβ aggregation, inhibits tau misfolding and protects the brain after traumatic brain injury” (Molecular Psychiatry, 2023) can be followed below.

Test [1] has as its system tau (P301L mouse brain homogenate). The test can be described thus: Western blot of total tau level in P301L brain lysate. Type of test: biochemical, human tau with P301L mutation, JNPL3 mice. Conditions: 50 µM, 2 h at 25 °C, 30 µg protein/100 µL, PBS pH 7.4, DAKO/actin band; mean ± SD, N = 3, p < 0.05. The text has this:
Male JNPL3 mice expressing 0N4R human tau with the P301L mutation (P301L) were obtained from Taconic Biosciences (New York, USA) (Tau Model 2508). Controls were non-transgenic (Non-tg) male mice with the same mixed C57BL/6, DBA/2, SW genetic background as P301L mice. Triple transgenic mice harboring human PS1(M146 V), APP(SW), and MAPT(P301L) transgenes, referred to as 3xTg-AD, were kindly provided by Dr. Oddo [34]. Male and female C57BL/6 J mice, referred to as wild type (WT), were purchased from Envigo (Italy).
Fig. 2 Effect of Aβ1-6A2V-TAT(D) on the toxicity caused in C. elegans by misfolded tau in P301L and TBI brain homogenates. A Brains from P301L mice were homogenized in 10 mM PBS, pH 7.4, and given to worms alone or in the presence of Aβ1-6A2V-TAT(D). B Worms were administered with brain homogenate (30 µg protein/100 worms/100 µL) in the absence or presence of Aβ1-6A2V-TAT(D) (0-200 µM). […] E Representative western blotting showing the total level of tau and tau quantification expressed as the mean volume of the DAKO band immunoreactivity/actin band. […] The reaction was then stopped, and samples were analyzed by western blot. […]
Lysates from brain homogenates of P301L mice (30 µg protein/100 µL) incubated for 2 h at 25°C with 50 µM Aβ1-6A2V-TAT(D), 50 µM Aβ1-6A2V(D), 50 µM TAT or 10 mM PBS, pH 7.4, were analyzed by immunoblotting using 10% SDS-PAGE gel and Western blotting analysis. […]

The subject of test [2] is insoluble tau (P301L mouse brain homogenate). Nature of the test: Detergent insolubility assay of tau in P301L brain lysate. Conditions: 50 µM, 2 h at 25 °C, PBS pH 7.4; mean ± SD, N = 4-5. Type of test: biochemical, human tau with P301L mutation, JNPL3 mice.

Square brackets hold non-standard residues; d marks the D form. Peptide text beside a SMILES is read from it.

Regarding `CC(C)[C@@H](NC(=O)[C@H](N)CC(=O)O)C(=O)N[C@H](CCC(=O)O)C(=O)N[C@H](Cc1ccccc1)C(=O)N[C@H](CCCNC(=N)N)C(=O)N[C@H](Cc1c[nH]cn1)C(=O)NCC(=O)NCC(=O)NCC(=O)NCC(=O)NCC(=O)N[C@H](CCCNC(=N)N)C(=O)N[C@H](CCCCN)C(=O)N[C@H](CCCCN)C(=O)N[C@H](CCCNC(=N)N)C(=O)N[C@H](CCCNC(=N)N)C(=O)N[C@H](CCC(N)=O)C(=O)N[C@H](CCCNC(=N)N)C(=O)N[C@H](CCCNC(=N)N)C(=O)N[C@H](CCCNC(=N)N)C(=O)O` [Aβ1-6A2V-TAT(D)] (H-[dD][dV][dE][dF][dR][dH]GGGGG[dR][dK][dK][dR][dR][dQ][dR][dR][dR]-OH; N-terminus assumed), in test [1], the “Total tau protein level in P301L brain homogenate” value is on record as “significantly reduced the tau protein level”. Moreover, the “Fraction of insoluble tau in P301L brain homogenate” value in test [2] is recorded as “without affecting the fraction of insoluble tau”.
